From patent US11384381B2, “Reaction accelerating agent” (Kikkoman Corporation, priority 2016, dated 2022)

System: fructosyl peptide oxidase (FPOX-CET)
Assay: Fructosyl valyl histidine detection reaction completed with excess fructosyl peptide oxidase (Example 6)
Assay type: biochemical
Conditions: 0.04% (w/v) compound, 4.8 U/ml FPOX-CET (excess), 32 μM fructosyl valyl histidine, pH 7.0, 37° C.; for ΔA9 min: change in A694-A751 9 minutes after mixing; for ΔA10 min: change in A694-A751 10 minutes after mixing, defined as ΔA100%
Procedure: In this Example the amount of change in absorbance is determined when the detection reaction of the substrate fructosyl valyl histidine was completed using an excess amount of fructosyl peptide oxidase (FPOX-CET), which is an oxidase.
A reagent for fructosyl valyl histidine measurement having the following composition was prepared, and the measurement of fructosyl valyl histidine using fructosyl peptide oxidase was carried out using Bio Majesty JCA-BM1650 (manufactured by JEOL Ltd.).
32 μM fructosyl valyl histidine (manufactured by Kikkoman Biochemifa Company)
30 mM MOPS-NaOH buffer solution, pH 7.0
0.2% (v/v) Triton X-100 (manufactured by Wako Pure Chemical Industries, Ltd.)
10 U/ml peroxidase PEO-301 (Toyobo Co., Ltd.)
0.023 mM 10-(carboxymethylaminocarbonyl)-3,7-bis(dimethylamino)phenothiazine sodium (DA-67, manufactured by Wako Pure Chemical Industries, Ltd.)
0.04% (w/v) of the compound of Comparative Example 2, any one compound of the present invention, or compound-free (Comparative Example 1) ion-exchange water as shown in Table 1
10 mM MOPS-NaOH buffer solution, pH 7.0
4.8 U/ml FPOX-CET (manufactured by Kikkoman Biochemifa Company)
8 μl of the sample was added to 96 μl of the first reagent-B, and the mixture was incubated at 37° C. for 5 minutes. Then, 24 μl of the second reagent-C was added thereto, and the quantitative reaction of hydrogen peroxide resulting from the oxidation of fructosyl valyl histidine was allowed to progress at 37° C. for 5 minutes. The absorbance (A694 and A751) of the reaction solution for light at wavelengths of 694 nm and 751 nm was measured over time for 10 minutes after the mixing of the sample with the first reagent-B to determine the value of subtraction of A751 from A694, i.e., the value A694/751. Subsequently, ΔA was calculated by subtracting, from […], the value of (104/128) times A694/751 4.8 minutes after the mixing of the sample with the first reagent-B. Incidentally, 4.8 minutes after the mixing of the sample with the first reagent-B represents the time immediately before the addition of the second reagent-C. ΔA 9 minutes and 10 minutes after the mixing of the diluted sample with the first reagent-B (ΔA9min and ΔA10min) are shown in Table 3.
In other words, it can be recognized that the quantitative reaction of fructosyl valyl histidine, i.e., the quantitative reaction of hydrogen peroxide resulting from the oxidation of fructosyl valyl histidine, was completed in 10 minutes after the mixing of the diluted sample with the first reagent-B. Accordingly, in Examples 6 and 7, ΔA10min in each Comparative Example or the present invention was defined as ΔA when 100% of the quantitative reaction of […] progressed under each condition (ΔA100%).

Cc1nn(-c2cc(S(=O)(=O)[O-])ccc2Cl)c(O)c1N=Nc1ccccc1.[Na+] [Acid Yellow 34]
ΔA9 min: 0.032
ΔA10 min: 0.033

O=C(O)c1cc(N=Nc2ccc3cc(S(=O)(=O)O)ccc3c2)ccc1O.[Na] [Chrome Yellow]
ΔA9 min: 0.064
ΔA10 min: 0.064

COc1cc(N=Nc2cccc(S(=O)(=O)[O-])c2)ccc1NC(=O)Nc1ccc(N=Nc2ccc(O)c(C(=O)[O-])c2)cc1.[Na+].[Na+] [Direct Yellow 44]
ΔA9 min: 0.043
ΔA10 min: 0.043

Xylene Fast Yellow 2G
ΔA9 min: 0.027
ΔA10 min: 0.027
